In patent US9127038B2, “Kisspeptide-pentasaccharide conjugates” (Merck Sharp & Dohme Corp., priority 2011, dated 2015):
Read-outs that look alike come from different tables or passages of the source.

Assays:
[1] = target: T1, human KISS-receptor (Homo sapiens, UniProt Q969F8); assay: NFAT-regulated luciferase reporter gene assay in CHO-k1 cells, agonist activity; format: cell-based
T1 construct: expressed in transfected cells; host or cells: CHO-k1 cells that also express mitochondrially targeted aequorin, Gα16 and an NFAT-luciferase reporter
T1 sequence (Q969F8 whole entry): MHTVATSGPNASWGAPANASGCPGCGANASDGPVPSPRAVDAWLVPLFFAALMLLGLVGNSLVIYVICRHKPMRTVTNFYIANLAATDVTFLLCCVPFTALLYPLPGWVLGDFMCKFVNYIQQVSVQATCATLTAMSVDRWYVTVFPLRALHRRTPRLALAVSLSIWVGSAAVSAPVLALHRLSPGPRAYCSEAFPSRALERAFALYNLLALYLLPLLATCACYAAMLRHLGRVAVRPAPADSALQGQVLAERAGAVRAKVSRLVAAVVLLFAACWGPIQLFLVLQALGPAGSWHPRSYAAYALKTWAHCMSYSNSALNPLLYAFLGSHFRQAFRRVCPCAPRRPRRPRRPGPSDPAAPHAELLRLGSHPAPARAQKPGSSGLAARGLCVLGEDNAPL
Description: CHO-k1 cells were used that expressed the mitochondrially targeted aequorine and Gα16 (from Euroscreen, Brussels, Belgium), a Nuclear Factor of Activated T-cells-responsive element (NFAT) under the control of a promoter directing the expression of a firefly luciferase reporter gene (pNFAT-TALuc obtained from Clontech, Mountain View, Calif.), and the human GPR54-R Hygro(+)-hGPR54WT c4; MSD). These cells were cultured in Dulbecco's Modified Eagle Medium: Nutrient Mixture F-12 (DMEM/F12) (Invitrogen, Carlsbad, Calif.), supplemented with 10% (vol/vol) filtered bovine serum (Hyclone, Thermo Fisher Scientific, Waltham, Mass.), 100 U/ml penicillin G, 100 μg/ml streptomycin, 400 μg/ml Geneticin and 400 μg/ml Hygromycin (Invitrogen). […] Kisspeptin-10 was used as a standard. […] When the conjugates were tested in the presence of a final percentage of 20% human serum, 10 μl assay medium containing 60% human serum (Sigma-Aldrich, #H4522) was added to the wells. In the absence of human serum, 10 μl of assay medium was added. Cells were harvested and diluted to a concentration of 7.5E5 cells/ml in assay medium without 0.1% BSA. 10 μl of cell solution was added to the compound wells. After incubation for 4 hours in a humidified atmosphere at 5% CO2 and 37° C., the plate was left at room temperature for 30 minutes. Subsequently, 15 μl of Steadylite™ solution (PerkinElmer, Boston, Mass.) was added and the cells, protected from light, were allowed to lyse for 30 min at room temperature. Luminescence, indicated as relative luminescence units (RLU), was measured on an Envision Multilabel reader (PerkinElmer).

[2] = In vitro stability in human serum (LC/MS/MS); details: human
Description: Test compound is added to 1.5 mL human serum in a 96-wells deepwell plate in a final concentration of 750 nM. The compound is mixed and immediately thereafter a 100 μl sample is harvested in a 96-wells 2D-tuberack (T=0 sample). The 2 D-tubes are closed with rubber tube caps and the sample plate is stored at −20° CF. in the freezer. The deepwell plate is put into an incubator which was set at humidified (95%) atmosphere at 5-7% CO2 and 37° C. for an incubation period of maximum 240 h. During this incubation period, samples of 100 μl are collected on various time intervals, dependent on the test compound used; time points 0, 1, 2, 3, 6, 24, 48, 72 h in case of Kisspeptides and 0, 3, 6, 24, 48, 72, 168, 240 h in case of kisspeptide-pentasaccharide conjugates. Sample plates are put on ice in case of sampling and stored at −20° C. until analysis by LC/MS/MS.
For LC-MS/MS analysis, the compounds are separated over an XTerra RP8 column and using a gradient mobile phase of ammonium acetate buffer and acetonitrile at a fixed column temperature. MS/MS detection is done with a triple quadrupole mass spectrometer and employing negative ion electrospray ionization. The mass spectrometer is set up to achieve a known degree of in source fragmentation, where the initially formed multiply charged negative ions lose one or more SO3 molecules. The most abundant of these secondary ions are then subjected to a common MS/MS experiment in which a single SO3 loss is monitored. The Q1 and Q3 mass filter settings for this MS/MS experiment have commonly been determined in method development. […] Internal standardization is accomplished by adding a different conjugate of approximately the same size to the bioanalytical samples.
The rate of compound loss is expressed as a half-life (plasma t^1/2). The t^1/2 for the test compound can be determined by plotting the natural logarithm (In) of the measured concentrations against time and fitting the line through all data points. The gradient of this line is the first order rate constant (k) for substrate disappearance and is determined by regression analysis. The rate constant is converted to a half-life according to the following equation: In vitro half-life(t^1/2)=−ln 2/k

[3] = absence of human serum, read-out: pEC50 (converted)
[4] = presence of 20% human serum, read-out: pEC50 serum (converted)

| EC50 [1, 3] | EC50 [1, 4] | SMILES | half-life at 750 nM [2] |
| --- | --- | --- | --- |
| 0.123 nM | 0.525 nM | CNC(=N)NCCC[C@H](NC(=O)[C@H](CC(C)C)NC(=O)NNC(=O)[C@H](Cc1ccccc1)NC(=O)[C@@H](NC(=O)[C@H](CC(N)=O)NC(=O)[C@H](Cc1c[nH]c2ccccc12)NC(=O)[C@H](CC(N)=O)NC(=O)[C@@H](Cc1ccc(O)cc1)NC(=O)CCOCCOCCOCCOCCn1cc(CCC(=O)NCCOCCOCCOCCO[C@H]2[C@H](OC)[C@@H](OC)[C@@H](O[C@H]3[C@H](OC)[C@@H](OC)[C@H](O[C@H]4[C@H](OS(=O)(=O)O)[C@@H](OS(=O)(=O)O)[C@@H](O[C@H]5[C@H](OC)[C@@H](OC)[C@H](O[C@H]6[C@H](OC)[C@@H](OS(=O)(=O)O)[C@@H](OC)O[C@@H]6COS(=O)(=O)O)O[C@H]5C(=O)O)O[C@@H]4COS(=O)(=O)O)O[C@@H]3C(=O)O)O[C@@H]2COS(=O)(=O)O)nn1)[C@@H](C)O)C(=O)N[C@@H](Cc1ccccc1)C(N)=O [Conjugate C10] | 121 h |
| 0.372 nM | 1.02 nM | CNC(=N)NCCC[C@H](NC(=O)[C@H](CC(C)C)NC(=O)CNC(=O)[C@H](Cc1ccccc1)NC(=O)[C@@H](NC(=O)[C@H](CC(N)=O)NC(=O)[C@@H]1C[C@@H](O)CN1C(=O)[C@H](CC(N)=O)NC(=O)[C@H](Cc1ccc(O)cc1)NC(=O)CCOCCOCCOCCOCCn1cc(CCC(=O)NCCOCCOCCOCCO[C@H]2[C@H](OC)[C@@H](OC)[C@@H](O[C@H]3[C@H](OC)[C@@H](OC)[C@H](O[C@H]4[C@H](OS(=O)(=O)O)[C@@H](OS(=O)(=O)O)[C@@H](O[C@H]5[C@H](OC)[C@@H](OC)[C@H](O[C@H]6[C@H](OC)[C@@H](OS(=O)(=O)O)[C@@H](OC)O[C@@H]6COS(=O)(=O)O)O[C@H]5C(=O)O)O[C@@H]4COS(=O)(=O)O)O[C@@H]3C(=O)O)O[C@@H]2COS(=O)(=O)O)nn1)[C@@H](C)O)C(=O)N[C@@H](Cc1ccccc1)C(N)=O [Conjugate C25] | 188 h |
| 0.0407 nM | 0.141 nM | CNC(=N)NCCC[C@H](NC(=O)[C@H](CC(C)C)NC(=O)NNC(=O)[C@H](Cc1ccccc1)NC(=O)[C@@H](NC(=O)[C@H](CC(N)=O)NC(=O)[C@@H]1C[C@@H](O)CN1C(=O)[C@@H](Cc1ccc(O)cc1)NC(=O)CCOCCOCCOCCOCCn1cc(CCC(=O)NCCOCCOCCOCCO[C@H]2[C@H](OC)[C@@H](OC)[C@@H](O[C@H]3[C@H](OC)[C@@H](OC)[C@H](O[C@H]4[C@H](OS(=O)(=O)O)[C@@H](OS(=O)(=O)O)[C@@H](O[C@H]5[C@H](OC)[C@@H](OC)[C@H](O[C@H]6[C@H](OC)[C@@H](OS(=O)(=O)O)[C@@H](OC)O[C@@H]6COS(=O)(=O)O)O[C@H]5C(=O)O)O[C@@H]4COS(=O)(=O)O)O[C@@H]3C(=O)O)O[C@@H]2COS(=O)(=O)O)nn1)[C@@H](C)O)C(=O)N[C@@H](Cc1c[nH]c2ccccc12)C(N)=O [Conjugate C34] | 138 h |
| 0.0427 nM | 1.38 nM | CNC(=N)NCCC[C@H](NC(=O)[C@H](CC(C)C)NC(=O)NNC(=O)[C@H](Cc1ccccc1)NC(=O)[C@@H](NC(=O)[C@H](CC(N)=O)NC(=O)[C@@H]1C[C@@H](O)CN1C(=O)[C@@H](Cc1ccc(O)cc1)NC(=O)CCOCCOCCOCCOCCn1cc(CCC(=O)NCCOCCOCCOCCO[C@H]2[C@H](OC)[C@@H](OC)[C@@H](O[C@H]3[C@H](OC)[C@@H](OC)[C@H](O[C@H]4[C@H](OS(=O)(=O)O)[C@@H](OS(=O)(=O)O)[C@@H](O[C@H]5[C@H](OC)[C@@H](OC)[C@H](O[C@H]6[C@H](OS(=O)(=O)O)[C@@H](OS(=O)(=O)O)[C@@H](OC)O[C@@H]6COS(=O)(=O)O)O[C@H]5C(=O)O)O[C@@H]4COS(=O)(=O)O)O[C@@H]3C(=O)O)O[C@@H]2COS(=O)(=O)O)nn1)[C@@H](C)O)C(=O)N[C@@H](Cc1c[nH]c2ccccc12)C(N)=O [Conjugate C35] | > 240 h |
